The values that follow come from US12031152B2, “Nutrient media for the production of slaughter-free meat” (Upside Foods, Inc., priority 2020, dated 2024).

Data set [1] is described as follows: ADI of trace elements and other components. The source says:
(§1) Several trace elements are essential to cell metabolism and growth. […] As a novel alternative to formulating trace elements directly, the present disclosure discloses the identification and testing of food-safe complexes that innately contain trace elements.

For data set [2] the following is noted: cited from earlier work; for Safe Reference Level for Human Dietary Intake: UL: Tolerable Upper Limit.
Data set [3] is described as follows: Safety assessment framework: risk categorization of media components.
Method: A safety assessment was conducted on each component of a given cell culture media under the procedure outlined below. […] Further overview of the categorical framework for ensuring that culture media components are safe and suitable for their intended use in meat production are outlined below according to their category designation. A list of media components used during meat production along with worst-case exposure estimates and relevant authoritative limits or published toxicological/safety data supporting their use is presented in Table 16. • Category 1: These cell culture media components are food ingredients/additives that are GRAS or permitted by federal regulation without limitation on use. Exemplary compounds in this category include innocuous ingredients such as sugars, pH buffers, water soluble vitamins, and common antioxidants such as tocopherols. • Category 2. These cell culture media components are common dietary nutrients and are anticipated to have GRAS status for food use or be permitted by regulation for addition to food. Examples of such compounds include most of the inorganic salts and macronutrients that are present within the cell culture media. […] In some instances, consideration of established safe levels (e.g., ADI, UL) derived from a relevant authoritative body (e.g., U.S. FDA, EFSA, JECFA, FSANZ, U.S. EPA) may be leveraged to support safety. If comparisons of anticipated dietary intakes relative to an authoritative reference intake value is used, consideration of additive intakes from all dietary sources may be considered. In the absence of an authoritative reference intake value, published NOAELs from animal toxicology studies may be used to evaluate safety using standard scientific procedures for food safety evaluation. A margin of exposure (MoE) of 100-fold or greater between the NOAEL and estimated dietary intakes from food exposures is typically considered adequate to support safety. In situations where the MoE is <100-fold, additional measures for further reduction of the media component may be necessary, or further characterization of intraspecies/interspecies differences in metabolism may be necessary. These situations also require careful consideration of the regulatory status on a case-by-case basis (e.g., premarket approval as a food additive or GRAS evaluation required). • Category 3. […] For Category 3 substances a final consideration in the safety assessment process may involve hazard characterization of the potential for a substance to produce toxic biological effects outside of the endpoints measured in a sub-chronic rat toxicity study. […] Considerations for allergenicity, biological effects in humans (e.g., effects on blood pressure), and synergistic effects with other media components also may be evaluated. […]
A short description of data set [4]: Margin between estimated intake of a 65 kg adult and rat NOAEL. As to conditions: 65 kg adult.
Method: A safety assessment was conducted on each component of a given cell culture media under the procedure outlined below. […] Further overview of the categorical framework for ensuring that culture media components are safe and suitable for their intended use in meat production are outlined below according to their category designation. A list of media components used during meat production along with worst-case exposure estimates and relevant authoritative limits or published toxicological/safety data supporting their use is presented in Table 16. • Category 1: These cell culture media components are food ingredients/additives that are GRAS or permitted by federal regulation without limitation on use. Exemplary compounds in this category include innocuous ingredients such as sugars, pH buffers, water soluble vitamins, and common antioxidants such as tocopherols. • Category 2. These cell culture media components are common dietary nutrients and are anticipated to have GRAS status for food use or be permitted by regulation for addition to food. Examples of such compounds include most of the inorganic salts and macronutrients that are present within the cell culture media. […] In some instances, consideration of established safe levels (e.g., ADI, UL) derived from a relevant authoritative body (e.g., U.S. FDA, EFSA, JECFA, FSANZ, U.S. EPA) may be leveraged to support safety. If comparisons of anticipated dietary intakes relative to an authoritative reference intake value is used, consideration of additive intakes from all dietary sources may be considered. […] For Category 3 substances a final consideration in the safety assessment process may involve hazard characterization of the potential for a substance to produce toxic biological effects outside of the endpoints measured in a sub-chronic rat toxicity study. […] Considerations for allergenicity, biological effects in humans (e.g., effects on blood pressure), and synergistic effects with other media components also may be evaluated. […]
Data set [5] can be described thus: Maximum (worst-case) dietary exposure estimate per 100 g serving. Particulars: assumes complete transfer of media components to the finished product on a wt/wt basis.
Method: The average daily intake (ADI) is conventionally determined as a result of a safety factor of 100-fold below the experimentally derived No Observable Adverse Effect Limits (NOAEL) for an appropriate animal species for sub-chronic or acute exposure. […] The ADI is determined in an appropriately sensitive species, usually rodent, and it is reported as mg of substance/kg of animal body weight/24-hour period. Calculating the maximum theoretical concentration of each media compound in the final product is done by assuming 100% incorporation of the compound from the media into the product.
A safety assessment was conducted on each component of a given cell culture media under the procedure outlined below.
Another data set has as its system Adherent Gallus cells. The data set is described as follows: Cellular response to cis recombinant Gallus FGF-2 vs commercial human recombinant FGF-2. As to conditions: growth factor at 10 μg/L and 100 μg/L, five days. It is filed as cell-based. The procedure: Adherent Gallus cells were thawed and seeded at a density of 5000 cells/cm^2 in a T25-flask. One medium was prepared according to standard media hydration protocols. Dry powder media was added to DI water in a clean vessel and allowed to stir until all components were dissolved. The pH and osmolality of the medium were adjusted to 7.4 and 300 mOsm/kg respectively. The medium was then filtered using a 0.22 μm PES filtration unit and stored at 4° C. until use. Prior to use, the medium was allowed to come up to room temperature. Cells were seeded in the inner wells of a 96-well cell culture plate. Wells were either seeded with one of two different FGF-2 growth factors, a recombinant Gallus FGF-2 produced as described in Example 5, or a commercially available recombinant human FGF-2, or without any growth factors. Each growth factor was seeded at two different concentrations, 10 μg/L or 100 μg/L. Test conditions were all seeded in triplicate at a density of 5000 cells/cm^2. Cells were incubated at 39° C. in 5% CO2 in a Biotek BioSpa Live Cell Analysis System (BioSpa) for five days. Cells were imaged every 12 hours using the BioSpa. Images were processed using BioTeck Gen5 Data Analysis software. Data was then exported and analyzed using Microsoft Excel and SAS JMP.

For data set [6], the system named is cells. The data set is described as follows: Screening of cobalt compounds to replace cobalt chloride. It is filed as cell-based. As to conditions: replacement of cobalt chloride. The source says:
Cobalt is an essential cofactor nutrient for many enzymatic pathways that contribute to metabolic and cellular function. Cobalt chloride is a commonly used source of cobalt in culture media. Cobalt chloride is strictly prohibited by the FDA for use in food. In order to find a suitable replacement, many cobalt compounds were screened. Eventually, Vitamin B12 in the form of cyanocobalamin, which contains bioavailable cobalt at its chiral center, was found. […] In some embodiments the method comprises removing cobalt chloride. In some embodiments the method comprises replacing cobalt chloride with cyanocobalamin (Vit B12).

Data set [7] relates to cells. Particulars: FAC 0.5 mg/ml-50 mg/ml, up to 275 hours, vs cells without FAC.
Source text: as §1

The molecule `O=C(O)CCCCC1CCSS1` (racemic) [DL-ALPHA-LIPOIC ACID] displayed an ADI in data set [1] of 5.14 mg/kg bw-day.
`CC(=O)Oc1c(C)c(C)c2c(c1C)CCC(C)(CCCC(C)CCCC(C)CCCC(C)C)O2` (racemic) [DL-ALPHA-TOCOPHEROL ACETATE]: the “Safe Reference Level for Human Dietary Intake: UL” value in data set [2] was “UL = 1000 mg/d”.
For the molecule `Cc1c(C)c2c(c(C)c1O)CC[C@@](C)(CCC[C@H](C)CCC[C@H](C)CCCC(C)C)O2` [D-ALPHA-TOCOPHEROL], the “Safe Reference Level for Human Dietary Intake: UL” value in data set [2] is “UL = 1000 mg/d”.
For `N[C@@H](CCC(=O)[O-])C(=O)O.O.[Na+]` [L-GLUTAMIC ACID MONOSODIUM H20], in data set [3], the “Risk Assessment Category” value is on record as 2.
Take `O=S(=O)([O-])[O-].[Mg+2]` [MAGNESIUM SULFATE (ANHY)]: the “Safe Reference Level for Human Dietary Intake: UL (in words)” value in data set [2] (NS = not specified as no evidence of toxicity from excess intake known) is recorded as “No UL for food”.
In the case of `NCCO` [MONOETHANOLAMINE], in data set [4] (rat NOAEL), the “Intakes below NOAEL” value is given as “kg adult are 128 fold”.
Turning to `Cl.Cl.NCCCCN` [PUTRESCINE-2HCl], in data set [1], the ADI came out at 0.018 mg/kg bw-day.
Consider `[Cl-].[Rb+]` [RUBIDIUM CHLORIDE], for which the ADI in data set [1] is 0.051 mg/kg bw-day.
For `O.O.[Na+].[Na+].[O]=[Mo](=[O])([O-])[O-]` [SODIUM MOLYBDATE-2H2O], in data set [1], the ADI is 1.41 mg/kg bw-day.
As to `O=P([O-])([O-])O.[Na+].[Na+]` [SODIUM PHOSPHATE DIBASIC-ANHY], the “Risk Assessment Category” value in data set [3] was found to be 1. In data set [5], the “Maximum Estimated Exposure per 100 g serving” value was 4.3 g.
As for `O.O.O.O.O.O.O=C([O-])CCC(=O)[O-].[Na+].[Na+]` [SODIUM SUCCINATE-2Na 6H20], the “Intakes below NOAEL” value in data set [4] (NOAEL from 2 year rat study) was “are >1000 fold below”.
`O.O.O.O.O.O.[Cl-].[Cl-].[Sr+2]` [STRONTIUM CHLORIDE HEXAHYDRATE] yielded an ADI in data set [1] of 1.87 mg/kg bw-day.
For the molecule `O=C(O)CCC(=O)O` [SUCCINIC ACID], the “Intakes below NOAEL” value in data set [4] (NOAEL from 2 year rat study) is recorded as “adult are 257-fold”.
`Cc1cn([C@H]2C[C@H](O)[C@@H](CO)O2)c(=O)[nH]c1=O` [THYMIDINE SYNTHETIC, THYMIDINE] displayed an ADI in data set [1] of 83.1 mg/kg bw-day.
As to `CCCCCCCC/C=C\CCCCCCCC(=O)OCCOCC(OCCO)C1OCC(OCCO)C1OCCO` (stereo not shown) [TWEEN 80], in data set [2] (Acceptable Daily Intake), the “Safe Reference Level for Human Dietary Intake: ADI” value was “ADI = 10 mg/kg bw/d”.
For the molecule `C=C1CC[C@H](O)C/C1=C/C=C1\CCC[C@]2(C)[C@@H]([C@H](C)/C=C/[C@H](C)C(C)C)CC[C@@H]12` [VITAMIN D2 (ERGOCALCIFEROL), ERGOCALCIFEROL], the “Safe Reference Level for Human Dietary Intake: UL” value in data set [2] is reported as “UL = 100 ug/d”.
CALCIUM D-PANTOTHENATE: in data set [3], the “Risk Assessment Category” value is given as 1.
As for FERRIC CITRATE, the “Risk Assessment Category” value in data set [3] amounted to 2.
For the molecule “commercial human FGF-2: commercially available recombinant human FGF-2 [reference compound]”, the cellular response result is recorded as “equivalent activity” in the data set on Adherent Gallus cells and “equivalent response” with Adherent Gallus cells (listed as human recombinant FGF-2).
As for “cyanocobalamin [VITAMIN B12 (CYANCOCOBALAMIN)]”, the “supply of cobalt to promote cellular function” value in the data set with cells [6] is given as “sufficiently supplied cobalt”.
ferric ammonium citrate [FAC]: the “cell viability over time” value in the data set with cells [7] is listed as “maintain high viability over time”.

B1: cis Gallus FGF-2: recombinant Gallus FGF-2 produced in E. coli as described in Example 5 (protein, UniProt P48800 13-158, looked up)
Fibroblast growth factor 2: PALPDDGGGGAFPPGHFKDPKRLYCKNGGFFLRINPDGRVDGVREKSDPHIKLQLQAEERGVVSIKGVSANRFLAMKEDGRLLALKCATEECFFFERLESNNYNTYRSRKYSDWYVALKRTGQYKPGPKTGPGQKAILFLPMSAKS
With B1, the cellular response result in the data set with Adherent Gallus cells is given as “equivalent activity”; in the data set on Adherent Gallus cells (listed as cis recombinant Gallus FGF-2) it was “equivalent response”.
